Test results from patent US20160206688A1, “METHODS FOR TREATING BACTEREMIA AND OSTEOMYELITIS USING ORITAVANCIN” (THE MEDICINES COMPANY, priority 2013, published 2016).
≈ marks a conversion by molar mass, not a printed value. Where two headings read alike, the source gives them in different places.

System: S. aureus
Test: Broth microdilution MIC, European bacteraemia isolates 2010-2012
Format: cell-based
Protocol: A total of 2,904 clinical strains responsible for documented bacteremia among unique hospitalized patients in 38 hospitals in 11 European Union countries. Israel, Russia, Turkey and Ukraine were included in this study (2010-2012). Isolates were submitted to a central monitoring laboratory (JMI Laboratories, North Liberty. Iowa. USA), following previously established protocols. Bacterial species identification was performed by using an automated system (Vitek®2; bioMèrieux, Hazelwood, Mo., USA) or conventional biochemical algorithms, as required.
Isolates were tested for susceptibility by broth microdilution methods following the Clinical and Laboratory Standards Institute (CLSI; M07-A9, 2012) document. Susceptibility testing was performed in cation-adjusted Mueller-Hinton broth (CA-MHB) using dry-form panels manufactured by Thermo Fisher Scientific, formerly TREK Diagnostics Systems/Sensititre (Cleveland. Ohio, USA). These panels provide results equivalent to the CLSI-approved broth microdilution method supplemented with 0.002% polysorbate-80.
Quality assurance was performed by concurrent testing of CLSI-recommended (M100-S23, 2013) strains: E. faecalis ATCC 29212 and S. aureus ATCC 29213. Interpretation of comparator MIC results was in accordance with published CLSI (M100-S23) and European Committee on Antimicrobial Susceptibility Testing (EUCAST, 2013) criteria.

[1] = S. aureus, Methicillin-Susceptible (1,126), at ≦0.008 mg/L
[2] = S. aureus, Methicillin-resistant (372), at ≦0.008 mg/L
[3] = S. aureus, Vancomycin MIC = 2 mg/L (19), at 0.015 mg/L
[4] = S. aureus, Vancomycin MIC = 2 mg/L (19), at 0.03 mg/L
[5] = S. aureus, Vancomycin MIC = 2 mg/L (19), at 0.06 mg/L
[6] = S. aureus, Vancomycin MIC = 2 mg/L (19), at 0.12 mg/L
[7] = Staphylococcus aureus, Table 1, S. aureus, Methicillin-Susceptible (1,126)
[8] = Staphylococcus aureus, Table 1, S. aureus, Methicillin-resistant (372)
[9] = Staphylococcus aureus, read-out: cumulative % inhibited at MIC

## CN[C@H](CC(C)C)C(=O)N[C@H]1C(=O)N[C@@H](CC(N)=O)C(=O)N[C@H]2C(=O)N[C@H]3C(=O)N[C@H](C(=O)N[C@H](C(=O)O)c4cc(O)cc(O)c4-c4cc3ccc4O)[C@H](O[C@H]3C[C@](C)(N)[C@@H](O)[C@H](C)O3)c3ccc(c(Cl)c3)Oc3cc2cc(c3O[C@@H]2O[C@H](CO)[C@@H](O)[C@H](O)[C@H]2O[C@H]2C[C@](C)(NCc3ccc(-c4ccc(Cl)cc4)cc3)[C@@H](O)[C@H](C)O2)Oc2ccc(cc2Cl)[C@H]1O [Oritavancin, N-(4-(4-chlorophenyl)benzyl)A82846B]
MRSA strains, MIC50/90
  activity relative to vancomycin or linezolid: 16- to 32 fold
  potency relative to daptomycin: eight-fold
S. aureus isolates with decreased susceptibility to vancomycin (MIC=2 mg/L)
  MIC50, MIC90 and modal MIC relative to strains with vancomycin MIC≦1 mg/L: two-fold higher
S. aureus, Methicillin-Susceptible (1,126), at 0.015 mg/L
  Number inhibited at MIC: 247
S. aureus, Methicillin-Susceptible (1,126), at 0.03 mg/L
  Number inhibited at MIC: 458
S. aureus, Methicillin-Susceptible (1,126), at 0.06 mg/L
  Number inhibited at MIC: 297
S. aureus, Methicillin-Susceptible (1,126), at 0.12 mg/L
  Number inhibited at MIC: 78
S. aureus, Methicillin-Susceptible (1,126), at 0.25 mg/L
  Number inhibited at MIC: 18
[1]
  Number inhibited at MIC: 28
  cumulative % inhibited at MIC: 2.5%
S. aureus, Methicillin-resistant (372), at 0.015 mg/L
  Number inhibited at MIC: 86
S. aureus, Methicillin-resistant (372), at 0.03 mg/L
  Number inhibited at MIC: 180
S. aureus, Methicillin-resistant (372), at 0.06 mg/L
  Number inhibited at MIC: 68
S. aureus, Methicillin-resistant (372), at 0.12 mg/L
  Number inhibited at MIC: 27
S. aureus, Methicillin-resistant (372), at 0.25 mg/L
  Number inhibited at MIC: 6
[2]
  Number inhibited at MIC: 5
  cumulative % inhibited at MIC: 1.3%
[3]
  Number inhibited at MIC: 1
  cumulative % inhibited at MIC: 5.3%
[4]
  Number inhibited at MIC: 3
  cumulative % inhibited at MIC: 21.1%
[5]
  Number inhibited at MIC: 11
  cumulative % inhibited at MIC: 78.9%
[6]
  Number inhibited at MIC: 3
  cumulative % inhibited at MIC: 94.7%
S. aureus, Vancomycin MIC = 2 mg/L (19), at 0.25 mg/L
  Number inhibited at MIC: 1
S. aureus, Vancomycin MIC = 2 mg/L (19), at ≦0.008 mg/L
  Number inhibited at MIC: 0
S. aureus, Vancomycin MIC ≦1 mg/L (1,479), at 0.12 mg/L
  Number inhibited at MIC: 102
S. aureus, Vancomycin MIC ≦1 mg/L (1,479), at 0.25 mg/L
  Number inhibited at MIC: 23
Staphylococcus aureus
  MIC50: 0.03 µg/mL (≈ 0.0167 µM)
  MIC90: 0.06 µg/mL (≈ 0.0335 µM)
Staphylococcus aureus, S. aureus, Vancomycin MIC = 2 mg/L (19), at ≦0.008 mg/L, read-out: cumulative % inhibited at MIC
  inhibition at 2 µg/mL: 0%
Staphylococcus aureus, S. aureus, Vancomycin MIC ≦1 mg/L (1,479), at 0.12 mg/L, read-out: cumulative % inhibited at MIC
  inhibition at 0.12 µg/mL: 98.4%
Staphylococcus aureus, S. aureus, Vancomycin MIC ≦1 mg/L (1,479), at 0.25 mg/L, read-out: cumulative % inhibited at MIC
  inhibition at 0.25 µg/mL: 100%
[7]
  MIC50: 0.03 µg/mL (≈ 0.0167 µM)
  MIC90: 0.06 µg/mL (≈ 0.0335 µM)
[8]
  MIC50: 0.03 µg/mL (≈ 0.0167 µM)
  MIC90: 0.06 µg/mL (≈ 0.0335 µM)
Staphylococcus aureus, Table 1, S. aureus, Vancomycin MIC = 2 mg/L (19), read-out: MIC 50%
  MIC50: 0.06 µg/mL (≈ 0.0335 µM)
Staphylococcus aureus, Table 1, S. aureus, Vancomycin MIC = 2 mg/L (19), read-out: MIC 90%
  MIC90: 0.12 µg/mL (≈ 0.0669 µM)
[9]
  inhibition at 0.015 µg/mL: 24.7%
  inhibition at 0.03 µg/mL: 67.6%
  inhibition at 0.06 µg/mL: 91.5%
Staphylococcus aureus, read-out: cumulative % inhibited at MIC, S. aureus, Methicillin-Susceptible (1,126), at 0.015 mg/L
  inhibition at 0.015 µg/mL: 24.4%
Staphylococcus aureus, read-out: cumulative % inhibited at MIC, S. aureus, Methicillin-Susceptible (1,126), at 0.03 mg/L
  inhibition at 0.03 µg/mL: 65.1%
Staphylococcus aureus, read-out: cumulative % inhibited at MIC, S. aureus, Methicillin-Susceptible (1,126), at 0.06 mg/L
  inhibition at 0.06 µg/mL: 91.5%
Staphylococcus aureus, read-out: cumulative % inhibited at MIC, S. aureus, Methicillin-Susceptible (1,126), at 0.12 mg/L
  inhibition at 0.12 µg/mL: 98.4%
Staphylococcus aureus, read-out: cumulative % inhibited at MIC, S. aureus, Methicillin-Susceptible (1,126), at 0.25 mg/L
  inhibition at 0.25 µg/mL: 100%
Staphylococcus aureus, read-out: cumulative % inhibited at MIC, S. aureus, Methicillin-resistant (372), at 0.015 mg/L
  inhibition at 0.015 µg/mL: 24.5%
